Test results published in patent US8192962B2, “Processes for detecting toxic substances” (Daikin Industries, Ltd., priority 2001, dated 2012).

System: Genes belonging to other category
Test: DNA chip mRNA expression in yeast, genes belonging to other category (Table 9)
Format: cell-based, Saccharomyces cerevisiae S288C
Method in brief: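 Ratios compare mRNA levels in stressed and control S. cerevisiae. Each toxicant was applied for two hours to log-phase cultures at 25° C. at a sub-lethal, growth-inhibiting level; fluorescent cDNA (Cy3- or Cy5-dUTP) was hybridized to a genome-wide yeast chip for over 12 h at 65° C.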

## Cl[C@H]1[C@H](Cl)[C@@H](Cl)[C@@H](Cl)[C@H](Cl)[C@H]1Cl [(7), γ-hexachlorocyclohexane]
Yeast gene YKL013C
  The level of expressed mRNA in the presence of chemical substance/The level of expressed mRNA in the absence of chemical substance: 1.8
Yeast gene YKL039W
  The level of expressed mRNA in the presence of chemical substance/The level of expressed mRNA in the absence of chemical substance: 2.0
Yeast gene YKL041W
  The level of expressed mRNA in the presence of chemical substance/The level of expressed mRNA in the absence of chemical substance: 1.0
Yeast gene YKL096W
  The level of expressed mRNA in the presence of chemical substance/The level of expressed mRNA in the absence of chemical substance: 0.2
Yeast gene YKL139W
  The level of expressed mRNA in the presence of chemical substance/The level of expressed mRNA in the absence of chemical substance: 2.6
Yeast gene YKL165C
  The level of expressed mRNA in the presence of chemical substance/The level of expressed mRNA in the absence of chemical substance: 2.1
Yeast gene YKL193C
  The level of expressed mRNA in the presence of chemical substance/The level of expressed mRNA in the absence of chemical substance: 2.1
Yeast gene YLR120C
  The level of expressed mRNA in the presence of chemical substance/The level of expressed mRNA in the absence of chemical substance: 1.5
Yeast gene YLR136C
  The level of expressed mRNA in the presence of chemical substance/The level of expressed mRNA in the absence of chemical substance: 3.9
Yeast gene YLR178C
  The level of expressed mRNA in the presence of chemical substance/The level of expressed mRNA in the absence of chemical substance: 3.3
Yeast gene YLR250W
  The level of expressed mRNA in the presence of chemical substance/The level of expressed mRNA in the absence of chemical substance: 1.9
Yeast gene YLR327C
  The level of expressed mRNA in the presence of chemical substance/The level of expressed mRNA in the absence of chemical substance: 5.7
Yeast gene YLR356W
  The level of expressed mRNA in the presence of chemical substance/The level of expressed mRNA in the absence of chemical substance: 1.1
Yeast gene YLR362W
  The level of expressed mRNA in the presence of chemical substance/The level of expressed mRNA in the absence of chemical substance: 1.9
Yeast gene YLR391W
  The level of expressed mRNA in the presence of chemical substance/The level of expressed mRNA in the absence of chemical substance: 0.7
Yeast gene YLR429W
  The level of expressed mRNA in the presence of chemical substance/The level of expressed mRNA in the absence of chemical substance: 1.3
Yeast gene YMR004W
  The level of expressed mRNA in the presence of chemical substance/The level of expressed mRNA in the absence of chemical substance: 1.2
Yeast gene YMR094W
  The level of expressed mRNA in the presence of chemical substance/The level of expressed mRNA in the absence of chemical substance: 0.8
Yeast gene YMR104C
  The level of expressed mRNA in the presence of chemical substance/The level of expressed mRNA in the absence of chemical substance: 1.5
Yeast gene YMR226C
  The level of expressed mRNA in the presence of chemical substance/The level of expressed mRNA in the absence of chemical substance: 1.8
Yeast gene YMR275C
  The level of expressed mRNA in the presence of chemical substance/The level of expressed mRNA in the absence of chemical substance: 0.8
Yeast gene YMR276W
  The level of expressed mRNA in the presence of chemical substance/The level of expressed mRNA in the absence of chemical substance: 1.1
Yeast gene YMR314W
  The level of expressed mRNA in the presence of chemical substance/The level of expressed mRNA in the absence of chemical substance: 1.1
Yeast gene YNL006W
  The level of expressed mRNA in the presence of chemical substance/The level of expressed mRNA in the absence of chemical substance: 1.6
Yeast gene YNL007C
  The level of expressed mRNA in the presence of chemical substance/The level of expressed mRNA in the absence of chemical substance: 1.2
Yeast gene YNL093W
  The level of expressed mRNA in the presence of chemical substance/The level of expressed mRNA in the absence of chemical substance: 1.4
Yeast gene YNL333W
  The level of expressed mRNA in the presence of chemical substance/The level of expressed mRNA in the absence of chemical substance: 2.9
Yeast gene YNR010W
  The level of expressed mRNA in the presence of chemical substance/The level of expressed mRNA in the absence of chemical substance: 1.5
Yeast gene YNR069C
  The level of expressed mRNA in the presence of chemical substance/The level of expressed mRNA in the absence of chemical substance: 1.4
Yeast gene YOL013C
  The level of expressed mRNA in the presence of chemical substance/The level of expressed mRNA in the absence of chemical substance: 1.7
Yeast gene YOL164W
  The level of expressed mRNA in the presence of chemical substance/The level of expressed mRNA in the absence of chemical substance: 2.2
Yeast gene YOR036W
  The level of expressed mRNA in the presence of chemical substance/The level of expressed mRNA in the absence of chemical substance: 1.8
Yeast gene YOR117W
  The level of expressed mRNA in the presence of chemical substance/The level of expressed mRNA in the absence of chemical substance: 3.3
Yeast gene YOR124C
  The level of expressed mRNA in the presence of chemical substance/The level of expressed mRNA in the absence of chemical substance: 1.1
Yeast gene YOR132W
  The level of expressed mRNA in the presence of chemical substance/The level of expressed mRNA in the absence of chemical substance: 1.4
Yeast gene YOR157C
  The level of expressed mRNA in the presence of chemical substance/The level of expressed mRNA in the absence of chemical substance: 1.2
Yeast gene YOR181W
  The level of expressed mRNA in the presence of chemical substance/The level of expressed mRNA in the absence of chemical substance: 0.7
Yeast gene YOR185C
  The level of expressed mRNA in the presence of chemical substance/The level of expressed mRNA in the absence of chemical substance: 1.3
Yeast gene YOR198C
  The level of expressed mRNA in the presence of chemical substance/The level of expressed mRNA in the absence of chemical substance: 1.6
Yeast gene YOR259C
  The level of expressed mRNA in the presence of chemical substance/The level of expressed mRNA in the absence of chemical substance: 1.3
Yeast gene YOR261C
  The level of expressed mRNA in the presence of chemical substance/The level of expressed mRNA in the absence of chemical substance: 1.9
Yeast gene YOR288C
  The level of expressed mRNA in the presence of chemical substance/The level of expressed mRNA in the absence of chemical substance: 2.0
Yeast gene YOR355W
  The level of expressed mRNA in the presence of chemical substance/The level of expressed mRNA in the absence of chemical substance: 1.1
Yeast gene YOR383C
  The level of expressed mRNA in the presence of chemical substance/The level of expressed mRNA in the absence of chemical substance: 8.0
Yeast gene YPL089C
  The level of expressed mRNA in the presence of chemical substance/The level of expressed mRNA in the absence of chemical substance: 0.9
Yeast gene YPL109C
  The level of expressed mRNA in the presence of chemical substance/The level of expressed mRNA in the absence of chemical substance: 1.8
Yeast gene YPL149W
  The level of expressed mRNA in the presence of chemical substance/The level of expressed mRNA in the absence of chemical substance: 1.2
Yeast gene YPL154C
  The level of expressed mRNA in the presence of chemical substance/The level of expressed mRNA in the absence of chemical substance: 1.5
Yeast gene YPR103W
  The level of expressed mRNA in the presence of chemical substance/The level of expressed mRNA in the absence of chemical substance: 1.6
Yeast gene YPR108W
  The level of expressed mRNA in the presence of chemical substance/The level of expressed mRNA in the absence of chemical substance: 1.6
